Reference: article PMC8286840, “Identifying SARS-CoV-2 antiviral compounds by screening for small molecule inhibitors of Nsp3 papain-like protease” (Biochemical Journal, 2021)
Counter-ions that a name gives are not always drawn. Like-named read-outs stand apart in the source and are kept apart here.

What was measured:
[1] = target: T1, SARS-CoV-2 PLpro (nsp3 1564–1878) (Severe acute respiratory syndrome coronavirus 2, UniProt P0DTD1); assay: biochemical; design: FRET-quenched peptide (Pro3) cleavage by PLpro, 10 min pre-incubation, slope over 20 min, normalised to no-compound control; settings: read-out: % of control remaining
[2] = target: T1, SARS-CoV-2 PLpro (nsp3 1564–1878); assay: biochemical; design: FRET-quenched peptide (Pro3) cleavage by PLpro, 10 min pre-incubation, slope over 20 min, normalised to no-compound control; settings: read-out: % of control remaining; remark: listed apart in the source

Nc1nc(Cl)nc2c1ncn2[C@@H]1O[C@H](CO)[C@@H](O)[C@@H]1F [Clofarabine]
remaining activity at 1.25 µM ([1]; Well no.=1927, low concentration screen): 103% | remaining activity at 1.25 µM ([1]; Well no.=8004, low concentration screen): 98.8% | remaining activity at 3.75 µM ([2]; Well no.=1927, high concentration screen): 103% | remaining activity at 3.75 µM ([2]; Well no.=8004, high concentration screen): 97.4%

CNc1nccc(-c2cccnc2Oc2cc(C(=O)Nc3cccc(C(F)(F)F)c3)ccc2C)n1 [AMG-Tie2-1]
remaining activity at 1.25 µM ([1]; Well no.=2788, low concentration screen): 97.1% | remaining activity at 3.75 µM ([2]; Well no.=2788, high concentration screen): 94.9%

CN1CCN(c2ccc([N+](=O)[O-])c3no[n+]([O-])c23)CC1 [NSC-207895 (XI-006)]
remaining activity at 1.25 µM ([1]; Well no.=4647, low concentration screen): 101% | remaining activity at 3.75 µM ([2]; Well no.=4647, high concentration screen): 95.2%

O=C(O)C1CCCN(CCC=C(c2ccccc2)c2ccccc2)C1 (stereo not drawn) [SKF 89976A hydrochloride]
remaining activity at 1.25 µM ([1]; Well no.=1323, low concentration screen): 99.7% | remaining activity at 3.75 µM ([2]; Well no.=1323, high concentration screen): 102%

c1cnc2c(c1)ccc1cccnc12 [1,10-Phenanthroline monohydrate]
remaining activity at 1.25 µM ([1]; Well no.=1259, low concentration screen): 101% | remaining activity at 3.75 µM ([2]; Well no.=1259, high concentration screen): 101%

OCCN(CCO)c1nc(N2CCCCC2)c2nc(N(CCO)CCO)nc(N3CCCCC3)c2n1 [Dipyridamole]
remaining activity at 1.25 µM ([1]; Well no.=682, low concentration screen): 103% | remaining activity at 1.25 µM ([1]; Well no.=1863, low concentration screen): 95.1% | remaining activity at 3.75 µM ([2]; Well no.=682, high concentration screen): 100% | remaining activity at 3.75 µM ([2]; Well no.=1863, high concentration screen): 94.7%

CCOC(=O)[C@H](CCc1ccccc1)N[C@@H](C)C(=O)N1CCC[C@H]1C(=O)O [Enalapril]
remaining activity at 1.25 µM ([1]; Well no.=2024, low concentration screen): 93.5% | remaining activity at 3.75 µM ([2]; Well no.=2024, high concentration screen): 102%

Cc1cccc(C#Cc2ccccc2)n1 [MPEP (Hydrochloride)]
remaining activity at 1.25 µM ([1]; Well no.=8541, low concentration screen): 96.2% | remaining activity at 3.75 µM ([2]; Well no.=8541, high concentration screen): 90.4%

O=C(O)C1=CCNCC1 [Isoguvacine hydrochloride]
remaining activity at 1.25 µM ([1]; Well no.=412, low concentration screen): 94.2% | remaining activity at 3.75 µM ([2]; Well no.=412, high concentration screen): 91.8%

CN(C)CCc1c[nH]c2ccc(CS(=O)(=O)N3CCCC3)cc12 [Almotriptan (malate)]
remaining activity at 1.25 µM ([1]; Well no.=6271, low concentration screen): 106% | remaining activity at 3.75 µM ([2]; Well no.=6271, high concentration screen): 106%

Clc1ccc(C(Cn2ccnc2)OCc2csc3c(Cl)cccc23)c(Cl)c1 (stereo not drawn) [Sertaconazole]
remaining activity at 1.25 µM ([1]; Well no.=1840, low concentration screen): 101% | remaining activity at 3.75 µM ([2]; Well no.=1840, high concentration screen): 98.3%

CC12CC3CC(C)(C1)CC(N)(C3)C2 [Memantine.HCl]
remaining activity at 1.25 µM ([1]; Well no.=1887, low concentration screen): 94.9% | remaining activity at 3.75 µM ([2]; Well no.=1887, high concentration screen): 95.2%

COc1cc2ncnc(Nc3cccc(Cl)c3)c2cc1OC [AG 1478]
remaining activity at 1.25 µM ([1]; Well no.=2643, low concentration screen): 97.4% | remaining activity at 3.75 µM ([2]; Well no.=2643, high concentration screen): 99.8%

c1ccc(-c2nn3c(c2-c2ccnc4cc(OCCN5CCOCC5)ccc24)CCC3)nc1 [LY2109761]
remaining activity at 1.25 µM ([1]; Well no.=4685, low concentration screen): 103% | remaining activity at 3.75 µM ([2]; Well no.=4685, high concentration screen): 103%

COc1cn(-c2ccc(-n3cccn3)cc2F)nc(-c2ccnn2-c2ccccc2)c1=O [TAK-063]
remaining activity at 1.25 µM ([1]; Well no.=8728, low concentration screen): 98.2% | remaining activity at 3.75 µM ([2]; Well no.=8728, high concentration screen): 94.2%

CC(C)c1cc(C(C)C)c(-c2csc(N(CCN(C)C)Cc3cccnc3)n2)c(C(C)C)c1 [SR 27417]
remaining activity at 1.25 µM ([1]; Well no.=5599, low concentration screen): 100% | remaining activity at 3.75 µM ([2]; Well no.=5599, high concentration screen): 100%

O=C(ON1C(=O)CCC1=O)N1CCN(C(c2ccc(Cl)cc2)c2ccc(Cl)cc2)CC1 [MJN110]
remaining activity at 1.25 µM ([1]; Well no.=5560, low concentration screen): 97.4% | remaining activity at 3.75 µM ([2]; Well no.=5560, high concentration screen): 100%

C[N+]1(CCCCC[N+]2(C)CCCC2)CCCC1 [Pentolinium di[L(+)-tartrate]]
remaining activity at 1.25 µM ([1]; Well no.=810, low concentration screen): 96.7% | remaining activity at 3.75 µM ([2]; Well no.=810, high concentration screen): 96.3%

CCN1CCC[C@H]1CNC(=O)c1c(OC)ccc(I)c1O [S(-)-IBZM]
remaining activity at 1.25 µM ([1]; Well no.=875, low concentration screen): 98.1% | remaining activity at 3.75 µM ([2]; Well no.=875, high concentration screen): 99.1%

CCNC1=Nc2ccc(Cl)cc2C(C)(c2ccccc2)O1 (stereo not drawn) [Etifoxine hydrochloride]
remaining activity at 1.25 µM ([1]; Well no.=6081, low concentration screen): 106% | remaining activity at 3.75 µM ([2]; Well no.=6081, high concentration screen): 104%

Clc1ccc(C(Cn2ccnc2)OCc2ccsc2Cl)c(Cl)c1 (stereo not drawn) [Tioconazole]
remaining activity at 1.25 µM ([1]; Well no.=1956, low concentration screen): 103% | remaining activity at 3.75 µM ([2]; Well no.=1956, high concentration screen): 104%

O=C1Nc2ccc(Cl)cc2[C@@](C#CC2CC2)(C(F)(F)F)O1 [Efavirenz]
remaining activity at 1.25 µM ([1]; Well no.=2248, low concentration screen): 97.1% | remaining activity at 3.75 µM ([2]; Well no.=2248, high concentration screen): 101%

COc1ccnc(C[S+]([O-])c2nc3cc(OC(F)F)ccc3[nH]2)c1OC (stereo not drawn) [Pantoprazole]
remaining activity at 1.25 µM ([1]; Well no.=2091, low concentration screen): 101% | remaining activity at 3.75 µM ([2]; Well no.=2091, high concentration screen): 99.9%

CN1CCc2c(c3ccccc3n2Cc2ccccc2)C1 [Mebhydrolin (napadisylate)]
remaining activity at 1.25 µM ([1]; Well no.=7437, low concentration screen): 99.4% | remaining activity at 3.75 µM ([2]; Well no.=7437, high concentration screen): 94.1%

CC1(C)CCC(C)(C)c2cc(C(=O)Nc3ccc(C(=O)O)cc3)ccc21 [AM-580]
remaining activity at 1.25 µM ([1]; Well no.=4434, low concentration screen): 92.7% | remaining activity at 3.75 µM ([2]; Well no.=4434, high concentration screen): 86%

COC(=O)C1=C(C)NC(C)=C(C(=O)OCCCN2CCC(c3ccccc3)(c3ccccc3)CC2)[C@H]1c1cccc([N+](=O)[O-])c1 [Niguldipine]
remaining activity at 1.25 µM [1]: 105% | remaining activity at 3.75 µM [2]: 100%

C=C1CC[C@H](O)C/C1=C\C=C1/CCC[C@]2(C)[C@@H]([C@H](C)CC[C@@H](O)C(C)(C)O)CC[C@@H]12 [24(R),25-Dihydroxyvitamin D3]
remaining activity at 1.25 µM ([1]; Well no.=4424, low concentration screen): 95.3% | remaining activity at 3.75 µM ([2]; Well no.=4424, high concentration screen): 88.6%

CC[C@]1(O)C[C@@H]2CN(CCc3c([nH]c4ccccc34)[C@@](C(=O)OC)(c3cc4c(cc3OC)N(C)[C@H]3[C@@](O)(C(=O)OC)[C@H](OC(C)=O)[C@]5(CC)C=CCN6CC[C@]43[C@@H]65)C2)C1 [Vinblastine sulfate salt]
remaining activity at 1.25 µM ([1]; Well no.=1288, low concentration screen): 111% | remaining activity at 3.75 µM ([2]; Well no.=1288, high concentration screen): 108%

CN1[C@@H]2CC[C@H]1C[C@@H](OC(c1ccccc1)c1ccccc1)C2 [Benztropine mesylate]
remaining activity at 1.25 µM ([1]; Well no.=177, low concentration screen): 104% | remaining activity at 3.75 µM ([2]; Well no.=177, high concentration screen): 104%

COc1ccc(Cc2nccc3cc(OC)c(OC)cc23)cc1OC [Papaverine hydrochloride]
remaining activity at 1.25 µM ([1]; Well no.=1144, low concentration screen): 98.1% | remaining activity at 3.75 µM ([2]; Well no.=1144, high concentration screen): 98.9%

Oc1ccc2c3c1O[C@H]1c4[nH]c5ccccc5c4C[C@@]4(O)[C@@H](C2)N(CC2CC2)CC[C@]314 [Naltrindole hydrochloride]
remaining activity at 1.25 µM ([1]; Well no.=1053, low concentration screen): 92.8% | remaining activity at 3.75 µM ([2]; Well no.=1053, high concentration screen): 93.2%

Cc1cn[nH]c1 [4-Methylpyrazole hydrochloride]
remaining activity at 1.25 µM ([1]; Well no.=776, low concentration screen): 98.4% | remaining activity at 3.75 µM ([2]; Well no.=776, high concentration screen): 99.2%

COc1cc(C(=O)NCc2ccc(OCCN(C)C)cc2)cc(OC)c1OC [Trimethobenzamide hydrochloride]
remaining activity at 1.25 µM ([1]; Well no.=8493, low concentration screen): 90.1% | remaining activity at 3.75 µM ([2]; Well no.=8493, high concentration screen): 91.3%

CC[C@H]1OC(=O)C[C@@H](O)[C@H](C)[C@@H](O[C@@H]2O[C@H](C)[C@@H](O)[C@H](N(C)C)[C@H]2O)[C@@H](CCN2C[C@H](C)C[C@H](C)C2)C[C@@H](C)C(=O)/C=C/C(C)=C/[C@@H]1CO[C@@H]1O[C@H](C)[C@@H](O)[C@@H](OC)[C@H]1OC [Tilmicosin]
remaining activity at 1.25 µM ([1]; Well no.=4746, low concentration screen): 97.6% | remaining activity at 3.75 µM ([2]; Well no.=4746, high concentration screen): 96.6%
